Experimental data as given in publication PMC9032790.
Converted amounts (≈) assume the structure as drawn. Marks after values point to notes of the source that are not given here.

How the values were obtained:
5C3-RAb [1] = assay: THC-H-OVA-based heterologous ic-ELISA with 5C3-RAb; type: binding, mouse; conditions: for cross-reactivity rate: ic-ELISA, IC50 of clothianidin / IC50 of analogue × 100%
1F7-RAb [2] = assay: IMI-H-OVA-based heterologous ic-ELISA with 1F7-RAb; type: binding, mouse; conditions: for cross-reactivity rate: ic-ELISA, IC50 of clothianidin / IC50 of analogue × 100%
[3] = test system: PcAb [22] (anti-clothianidin antibody); set-up: method as in PMID 23527939; conditions: ic-ELISA, cited from earlier work; for cross-reactivity rate: IC50 of clothianidin / IC50 of analogue × 100%
[4] = test system: McAb [23] (anti-clothianidin antibody); set-up: method as in PMID 23202236; conditions: ic-ELISA, cited from earlier work; for cross-reactivity rate: IC50 of clothianidin / IC50 of analogue × 100%
[5] = test system: McAb [35] (anti-clothianidin antibody); set-up: method as in PMID 25173856; conditions: ic-ELISA, cited from earlier work; for cross-reactivity rate: IC50 of clothianidin / IC50 of analogue × 100%
5C3-McAb = assay: heterologous ic-ELISA with 5C3-McAb; conditions: for cross-reactivity rate: IC50 of clothianidin / IC50 of analogue × 100%
1F7-McAb = assay: heterologous ic-ELISA with 1F7-McAb; conditions: for cross-reactivity rate: IC50 of clothianidin / IC50 of analogue × 100%
1F7-RAb [6] = assay: non-competitive SPR with immobilized 1F7-RAb; type: binding, mouse
5C3-RAb [7] = assay: non-competitive SPR with immobilized 5C3-RAb; type: binding, mouse
1F7-RAb [8] = assay: 1F7-RAb-based GICA, selectivity and sensitivity in standard solution; type: binding, mouse; conditions: analyte at 1000 μg/L, judged with the naked eye
[9] = test system: six potential antibodies from hybridoma culture supernatants; assay: homologous ic-ELISA hybridoma screening (CLO-H-OVA); conditions: free clothianidin 50 μg/L; CLO-H-OVA 5 μg/mL
[10] = 8 neonicotinoids at the same concentration of 50 nM
[11] = SPR, 1:1 binding kinetic model, read-out: KD (dissociation equilibrium constant)

SMILES: O=[N+]([O-])/N=C1\NCCN1Cc1ccc(Cl)nc1 [C00003]
- cross-reactivity rate (5C3-RAb [1]): <0.1%
- cross-reactivity rate (1F7-RAb [2]): <0.1%
- cross-reactivity rate [3]: 0.8%
- cross-reactivity rate [4]: <0.1%
- cross-reactivity rate [5]: <0.03%
- cross-reactivity rate (5C3-McAb): <0.1%
- cross-reactivity rate (1F7-McAb): <0.1%

SMILES: C/C(=N\C#N)N(C)Cc1ccc(Cl)nc1 [C00004]
- cross-reactivity rate (5C3-RAb [1]): <0.1%
- cross-reactivity rate (1F7-RAb [2]): <0.1%
- cross-reactivity rate [3]: <0.05%
- cross-reactivity rate [4]: <0.1%
- cross-reactivity rate [5]: <0.03%
- cross-reactivity rate (5C3-McAb): <0.1%
- cross-reactivity rate (1F7-McAb): <0.1%

SMILES: N#C/N=C1\SCCN1Cc1ccc(Cl)nc1 [C00005]
- cross-reactivity rate (5C3-RAb [1]): <0.1%
- cross-reactivity rate (1F7-RAb [2]): <0.1%
- cross-reactivity rate [3]: <0.05%
- cross-reactivity rate [4]: <0.1%
- cross-reactivity rate [5]: <0.03%
- cross-reactivity rate (5C3-McAb): <0.1%
- cross-reactivity rate (1F7-McAb): <0.1%

SMILES: CN1COCN(Cc2cnc(Cl)s2)/C1=N/[N+](=O)[O-] [C00006]
- cross-reactivity rate (5C3-RAb [1]): <0.1%
- cross-reactivity rate (1F7-RAb [2]): <0.1%
- cross-reactivity rate [3]: <0.05%
- cross-reactivity rate [4]: <0.1%
- cross-reactivity rate [5]: <0.03%
- cross-reactivity rate (5C3-McAb): <0.1%
- cross-reactivity rate (1F7-McAb): <0.1%

SMILES: CCN(Cc1ccc(Cl)nc1)/C(=C\[N+](=O)[O-])NC [C00007]
- cross-reactivity rate (5C3-RAb [1]): <0.1%
- cross-reactivity rate (1F7-RAb [2]): <0.1%
- cross-reactivity rate [3]: <0.05%
- cross-reactivity rate [4]: <0.1%
- cross-reactivity rate [5]: <0.03%
- cross-reactivity rate (5C3-McAb): <0.1%
- cross-reactivity rate (1F7-McAb): <0.1%

SMILES: O=[N+]([O-])/N=C1/NCCN1Cc1cnc(Cl)s1 [C00008]
- cross-reactivity rate (5C3-RAb [1]): <0.1%
- cross-reactivity rate (1F7-RAb [2]): <0.1%
- cross-reactivity rate [3]: <0.05%
- cross-reactivity rate [4]: <0.1%
- cross-reactivity rate [5]: <0.03%
- cross-reactivity rate (5C3-McAb): <0.1%
- cross-reactivity rate (1F7-McAb): <0.1%

SMILES: CN/C(=N\[N+](=O)[O-])NCc1cnc(Cl)s1 [clothianidin]
- IC50 value (5C3-RAb [1]; heterologous ic-ELISA, 5 μg/mL of THC-H-OVA, listed as C00001): 5.22 ng/mL (≈ 0.0209 µM)
- cross-reactivity rate (5C3-RAb [1]): 100%
- IC50 value (1F7-RAb [2]; heterologous ic-ELISA, 1.25 μg/mL of IMI-H-OVA): 4.62 ng/mL (≈ 0.0185 µM)
- cross-reactivity rate (1F7-RAb [2]): 100%
- SPR binding selectivity signal (1F7-RAb [6]; [10]): high signal
- Kd (1F7-RAb [6]; [11]): 3.24 nM
- SPR binding selectivity signal (5C3-RAb [7]; [10]): high signal
- Kd (5C3-RAb [7]; [11]): 7.96 nM
- GICA cross-reaction test, effect on T line (1F7-RAb [8]): complete disappearance of the T line
- cross-reactivity rate [3]: 100%
- IC50 value [3]: 46 ng/mL (≈ 0.184 µM)
- cross-reactivity rate [4]: 100%
- IC50 value [4]: 4.4 ng/mL (≈ 0.0176 µM)
- cross-reactivity rate [5]: 100%
- IC50 value [5]: 25.6 ng/mL (≈ 0.103 µM)
- IC50 value (5C3-McAb): 13.16 ng/mL (≈ 0.0527 µM)
- cross-reactivity rate (5C3-McAb): 100%
- IC50 value (1F7-McAb): 5.38 ng/mL (≈ 0.0215 µM)
- cross-reactivity rate (1F7-McAb): 100%
- inhibition of binding of CLO-H-OVA to antibodies [9]: less than 11%

SMILES: CN/C(=N/CC1CCOC1)N[N+](=O)[O-] (stereo not shown) [dinotefuran]
- cross-reactivity rate (5C3-RAb [1]): 56%
- cross-reactivity rate (1F7-RAb [2]): no obvious cross-reaction
- cross-reactivity rate (1F7-RAb [2]; listed as C00002): <0.1%
- cross-reactivity rate [3]: 11.8 ^c %
- cross-reactivity rate [4]: 64%
- cross-reactivity rate [5]: 47.8%
- cross-reactivity rate (5C3-McAb): 42.4%
- cross-reactivity rate (1F7-McAb): <0.1%
